According to paper PMC5218480 (PLoS ONE, 2017):

System: MV-4-11 cells
Test: Gene expression microarray analysis (Affymetrix PrimeView) and GSEA
Assay type: cell-based, human
Design: RFU PODN (11730768_x_at) / Fold change /veh PODN (11730768_x_at) / RFU LINC00158 (11744669_a_at) / Fold change /veh LINC00158 (11744669_a_at) / RFU DUSP10 (11751237_a_at) / Fold change /veh DUSP10 (11751237_a_at) / RFU ID3 (11757404_x_at) / Fold change /veh ID3 (11757404_x_at) / RFU PLEKHG5 (11737974_s_at) / Fold change /veh PLEKHG5 (11737974_s_at) / RFU LRRC4B (11730491_at) / Fold change /veh LRRC4B (11730491_at) / RFU GIMAP4 (11747438_a_at) / Fold change /veh GIMAP4 (11747438_a_at) / RFU KRT8 (11758183_x_at) / Fold change /veh KRT8 (11758183_x_at) / RFU CNN1 (11734310_a_at) / Fold change /veh CNN1 (11734310_a_at) / RFU VPS37D (11726825_at) / Fold change /veh VPS37D (11726825_at) / RFU C10orf10 (11716522_x_at) / Fold change /veh C10orf10 (11716522_x_at) / RFU KIR2DL2 /// KIR2DL4 /// KIR2DL5A /// KIR2DL5B /// KIR2DS1 /// KIR2DS2 /// KIR2DS3 /// KIR2DS4 /// KIR3DL3 /// KIR3DL3 /// KIR3DS1 (11738374_at) / Fold change /veh KIR2DL2 /// KIR2DL4 /// KIR2DL5A /// KIR2DL5B /// KIR2DS1 /// KIR2DS2 /// KIR2DS3 /// KIR2DS4 /// KIR3DL3 /// KIR3DL3 /// KIR3DS1 (11738374_at) / RFU C1QL1 (11718748_at) / Fold change /veh C1QL1 (11718748_at) / RFU TMPRSS4 (11747572_a_at) / Fold change /veh TMPRSS4 (11747572_a_at) / RFU HAMP (11756126_x_at) / Fold change /veh HAMP (11756126_x_at) / RFU RNFT2 (11725882_a_at) / Fold change /veh RNFT2 (11725882_a_at) / RFU NR4A2 (11747474_a_at) / Fold change /veh NR4A2 (11747474_a_at) / RFU ABCC12 (11746883_a_at) / Fold change /veh ABCC12 (11746883_a_at) / RFU TMEM136 (11760407_x_at) / Fold change /veh TMEM136 (11760407_x_at) / RFU CLDN22 /// WWC2 (11732394_at) / Fold change /veh CLDN22 /// WWC2 (11732394_at) / RFU HLA-DPB1 (11760878_x_at) / Fold change /veh HLA-DPB1 (11760878_x_at) / RFU SPINT1 (11716480_a_at) / Fold change /veh SPINT1 (11716480_a_at) / RFU GAP43 (11754022_s_at) / Fold change /veh GAP43 (11754022_s_at) / RFU A4GNT (11735810_at) / Fold change /veh A4GNT (11735810_at) / RFU PRB3 (11715151_x_at) / Fold change /veh PRB3 (11715151_x_at) / RFU TUBB4B (11761932_at) / Fold change /veh TUBB4B (11761932_at) / RFU CAPN14 (11732068_a_at) / Fold change /veh CAPN14 (11732068_a_at) / RFU TMCC2 (11721928_a_at) / Fold change /veh TMCC2 (11721928_a_at) / RFU IRGQ (11745062_a_at) / Fold change /veh IRGQ (11745062_a_at) / RFU FAM174B (11720279_a_at) / Fold change /veh FAM174B (11720279_a_at) / RFU TMPRSS4 (11748680_a_at) / Fold change /veh TMPRSS4 (11748680_a_at) / RFU FAM212B (11763350_a_at) / Fold change /veh FAM212B (11763350_a_at) / RFU PLEKHG5 (11743358_a_at) / Fold change /veh PLEKHG5 (11743358_a_at) / RFU ZSCAN30 (11745921_a_at) / Fold change /veh ZSCAN30 (11745921_a_at) / RFU CMKLR1 (11741424_a_at) / Fold change /veh CMKLR1 (11741424_a_at) / RFU LOC101060620 /// MAPK8IP1 (11723275_at) / Fold change /veh LOC101060620 /// MAPK8IP1 (11723275_at) / RFU SPTSSB (11747773_x_at) / Fold change /veh SPTSSB (11747773_x_at) / RFU PRSS12 (11739890_at) / Fold change /veh PRSS12 (11739890_at) / RFU BIN1 (11741810_x_at) / Fold change /veh BIN1 (11741810_x_at) / RFU WNT11 (11732464_a_at) / Fold change /veh WNT11 (11732464_a_at) / RFU C10orf10 (11716521_a_at) / Fold change /veh C10orf10 (11716521_a_at) / RFU C5orf56 (11738089_at) / Fold change /veh C5orf56 (11738089_at) / RFU CYB561 (11721691_x_at) / Fold change /veh CYB561 (11721691_x_at) / RFU ANKRD19P (11752326_a_at) / Fold change /veh ANKRD19P (11752326_a_at) / RFU OR2T12 /// OR2T33 /// OR2T8 (11738714_s_at) / Fold change /veh OR2T12 /// OR2T33 /// OR2T8 (11738714_s_at) / RFU VCAN (11748164_a_at) / Fold change /veh VCAN (11748164_a_at) / RFU JSRP1 (11732532_at) / Fold change /veh JSRP1 (11732532_at) / RFU KRTAP10-11 (11738290_x_at) / Fold change /veh KRTAP10-11 (11738290_x_at) / RFU MYO3A (11730013_a_at) / Fold change /veh MYO3A (11730013_a_at) / RFU EBF3 (11725865_a_at) / Fold change /veh EBF3 (11725865_a_at) / RFU CAMK2N1 (11719241_x_at) / Fold change /veh CAMK2N1 (11719241_x_at) / RFU C5orf56 (11738088_a_at) / Fold change /veh C5orf56 (11738088_a_at) / RFU OLFML3 (11715873_a_at) / Fold change /veh OLFML3 (11715873_a_at) / RFU LOC100653217 /// NTM (11731650_a_at) / Fold change /veh LOC100653217 /// NTM (11731650_a_at) / RFU MAPK11 (11762145_a_at) / Fold change /veh MAPK11 (11762145_a_at) / RFU FIZ1 (11724087_x_at) / Fold change /veh FIZ1 (11724087_x_at) / RFU OASL (11726364_x_at) / Fold change /veh OASL (11726364_x_at) / RFU SOX15 (11748057_x_at) / Fold change /veh SOX15 (11748057_x_at) / RFU CD79A (11719716_a_at) / Fold change /veh CD79A (11719716_a_at) / RFU HIST1H1D (11736915_at) / Fold change /veh HIST1H1D (11736915_at) / RFU CASKIN2 (11723855_a_at) / Fold change /veh CASKIN2 (11723855_a_at) / RFU LOC730098 (11760151_x_at) / Fold change /veh LOC730098 (11760151_x_at) / RFU OR4N2 (11742367_at) / Fold change /veh OR4N2 (11742367_at) / RFU PRRT2 (11749266_a_at) / Fold change /veh PRRT2 (11749266_a_at) / RFU SNX32 (11753110_a_at) / Fold change /veh SNX32 (11753110_a_at) / RFU CDHR5 (11726645_a_at) / Fold change /veh CDHR5 (11726645_a_at) / RFU RCAN1 (11760418_a_at) / Fold change /veh RCAN1 (11760418_a_at) / RFU FAM167A (11723789_a_at) / Fold change /veh FAM167A (11723789_a_at) / RFU FAM26E (11764081_at) / Fold change /veh FAM26E (11764081_at) / RFU ISYNA1 (11749810_s_at) / Fold change /veh ISYNA1 (11749810_s_at) / RFU ACY1 (11761880_at) / Fold change /veh ACY1 (11761880_at) / RFU 11764098_at / Fold change /veh 11764098_at / RFU SAMD14 (11745864_x_at) / Fold change /veh SAMD14 (11745864_x_at) / RFU NPB (11741838_a_at) / Fold change /veh NPB (11741838_a_at) / RFU TMPRSS6 (11731388_a_at) / Fold change /veh TMPRSS6 (11731388_a_at) / RFU KRTAP10-2 (11738614_at) / Fold change /veh KRTAP10-2 (11738614_at) / RFU ARHGAP8 /// PRR5-ARHGAP8 (11727945_x_at) / Fold change /veh ARHGAP8 /// PRR5-ARHGAP8 (11727945_x_at) / RFU KRTAP5-7 /// NADSYN1 (11734609_at) / Fold change /veh KRTAP5-7 /// NADSYN1 (11734609_at) / RFU RASL12 (11751679_a_at) / Fold change /veh RASL12 (11751679_a_at) / RFU CDKN2B (11736163_a_at) / Fold change /veh CDKN2B (11736163_a_at) / RFU PRF1 (11729649_at) / Fold change /veh PRF1 (11729649_at) / RFU, ZNF638 /// ZNF638-IT1 / Fold change vs veh, ZNF638 /// ZNF638-IT1 / RFU, PANK3 / Fold change vs veh, PANK3 / RFU, SH3YL1 / Fold change vs veh, SH3YL1 / RFU, ZEB2 / Fold change vs veh, ZEB2 / RFU, NRIP1 / Fold change vs veh, NRIP1 / RFU, PTTG1IP / Fold change vs veh, PTTG1IP / RFU, CAPN2 / Fold change vs veh, CAPN2 / RFU, MED14 / Fold change vs veh, MED14 / RFU, SNORA58 / Fold change vs veh, SNORA58 / RFU, C1orf63 / Fold change vs veh, C1orf63 / RFU, LRRFIP1 / Fold change vs veh, LRRFIP1 / RFU, NDUFAF7 / Fold change vs veh, NDUFAF7 / RFU, SLC12A2 / Fold change vs veh, SLC12A2 / RFU, IBTK / Fold change vs veh, IBTK / RFU, ESF1 / Fold change vs veh, ESF1 / Fold change vs veh, TMEM50B / RFU, TAOK1 / Fold change vs veh, TAOK1 / RFU, ACBD3 / Fold change vs veh, ACBD3 / RFU, TMA16 / Fold change vs veh, TMA16 / RFU, RWDD3 / Fold change vs veh, RWDD3 / RFU, BCAT1 / Fold change vs veh, BCAT1 / RFU, EDEM3 / Fold change vs veh, EDEM3 / RFU, TMEM33 / Fold change vs veh, TMEM33 / RFU, WDR75 / Fold change vs veh, WDR75 / RFU, AHCTF1 / Fold change vs veh, AHCTF1 / RFU, TFRC / Fold change vs veh, TFRC / RFU, ZDHHC17 / Fold change vs veh, ZDHHC17 / RFU, NOM1 / Fold change vs veh, NOM1 / RFU, ARL8B / Fold change vs veh, ARL8B / RFU, ZBTB11 / Fold change vs veh, ZBTB11 / RFU, TAMM41 / Fold change vs veh, TAMM41 / RFU, KIAA1704 /// LOC100996395 / Fold change vs veh, KIAA1704 /// LOC100996395 / RFU, ING1 / Fold change vs veh, ING1 / RFU, TRMT61B / Fold change vs veh, TRMT61B / RFU, FUBP3 / Fold change vs veh, FUBP3 / RFU, TP53 / Fold change vs veh, TP53 / RFU, TNKS2 / Fold change vs veh, TNKS2 / RFU, ZFP14 / Fold change vs veh, ZFP14 / RFU, ACTR2 / Fold change vs veh, ACTR2 / RFU, PPP3R1 / Fold change vs veh, PPP3R1 / RFU, PIK3R1 / Fold change vs veh, PIK3R1 / RFU, HNRNPA1 / Fold change vs veh, HNRNPA1 / RFU, RNF170 / Fold change vs veh, RNF170 / RFU, ZNF28 / Fold change vs veh, ZNF28 / RFU, RNGTT / Fold change vs veh, RNGTT / RFU, OGT / Fold change vs veh, OGT / RFU, BRD1 / Fold change vs veh, BRD1 / RFU, MARS / Fold change vs veh, MARS / RFU, ZNF655 / Fold change vs veh, ZNF655 / RFU, FAHD1 / Fold change vs veh, FAHD1 / RFU, BDP1 / Fold change vs veh, BDP1 / RFU, LRRCC1 / Fold change vs veh, LRRCC1 / RFU, ARID1A / Fold change vs veh, ARID1A / RFU, ZNF146 / Fold change vs veh, ZNF146 / RFU, ZNF330 / Fold change vs veh, ZNF330 / RFU, GPN3 / Fold change vs veh, GPN3 / RFU, C9orf123 / Fold change vs veh, C9orf123 / RFU, N4BP2L2 / Fold change vs veh, N4BP2L2 / RFU, ARFIP1 / Fold change vs veh, ARFIP1 / RFU, FAM179B / Fold change vs veh, FAM179B / RFU, BCL10 / Fold change vs veh, BCL10 / RFU, UHRF1BP1L / Fold change vs veh, UHRF1BP1L / RFU, BET1 / Fold change vs veh, BET1 / RFU, CNOT2 / Fold change vs veh, CNOT2 / RFU, ZNF268 / Fold change vs veh, ZNF268 / Fold change vs veh, ZNF507 / RFU, DGCR2 / Fold change vs veh, DGCR2 / RFU, WDSUB1 / Fold change vs veh, WDSUB1 / Fold change vs veh, HSP90B1 /// MIR3652 / RFU, ADSS / Fold change vs veh, ADSS / RFU, GK / Fold change vs veh, GK / RFU, ZNF148 / Fold change vs veh, ZNF148 / RFU, TAF9 / Fold change vs veh, TAF9 / RFU, SLC1A5 / Fold change vs veh, SLC1A5 / RFU, SLMO2 / Fold change vs veh, SLMO2 / RFU, ABCC4 / Fold change vs veh, ABCC4 / RFU, LOC101060439 /// RAP1B / Fold change vs veh, LOC101060439 /// RAP1B / RFU, RFX7 / Fold change vs veh, RFX7 / RFU, GTPBP10 / Fold change vs veh, GTPBP10 / RFU, CNEP1R1 / Fold change vs veh, CNEP1R1 / RFU, BIVM-ERCC5 /// ERCC5 / Fold change vs veh, BIVM-ERCC5 /// ERCC5 / RFU, ILF3 / Fold change vs veh, ILF3 / RFU 11762660_at / Fold change /veh 11762660_at / RFU VCAN (11757783_s_at) / Fold change /veh VCAN (11757783_s_at) / RFU DDX43 (11728927_at) / Fold change /veh DDX43 (11728927_at) / RFU KRT8 (11758188_x_at) / Fold change /veh KRT8 (11758188_x_at) / RFU NKD1 (11759106_at) / Fold change /veh NKD1 (11759106_at) / RFU SRD5A1 (11742802_a_at) / Fold change /veh SRD5A1 (11742802_a_at) / RFU TPSAB1 /// TPSB2 (11721975_s_at) / Fold change /veh TPSAB1 /// TPSB2 (11721975_s_at) / RFU GSTM3 (11746129_a_at) / Fold change /veh GSTM3 (11746129_a_at) / RFU IL23R (11737362_x_at) / Fold change /veh IL23R (11737362_x_at) / RFU TMEM51 (11727254_a_at) / Fold change /veh TMEM51 (11727254_a_at) / RFU PIWIL2 (11732686_x_at) / Fold change /veh PIWIL2 (11732686_x_at) / RFU ORM1 (11744905_x_at) / Fold change /veh ORM1 (11744905_x_at) / RFU CCDC152 (11743942_at) / Fold change /veh CCDC152 (11743942_at) / RFU ECM1 (11717891_a_at) / Fold change /veh ECM1 (11717891_a_at) / RFU IL23R (11748794_a_at) / Fold change /veh IL23R (11748794_a_at) / RFU TNFAIP8L3 (11732012_x_at) / Fold change /veh TNFAIP8L3 (11732012_x_at) / RFU MBOAT4 (11741988_at) / Fold change /veh MBOAT4 (11741988_at) / RFU 11764193_at / Fold change /veh 11764193_at / RFU TMEM53 (11763286_at) / Fold change /veh TMEM53 (11763286_at) / RFU MAGEB2 (11727129_at) / Fold change /veh MAGEB2 (11727129_at) / RFU TMEM200A (11744735_a_at) / Fold change /veh TMEM200A (11744735_a_at) / RFU CCDC152 (11751479_a_at) / Fold change /veh CCDC152 (11751479_a_at) / RFU FAM211A (11726209_a_at) / Fold change /veh FAM211A (11726209_a_at) / RFU RGS16 (11746705_a_at) / Fold change /veh RGS16 (11746705_a_at) / RFU VCAN (11755009_s_at) / Fold change /veh VCAN (11755009_s_at) / RFU RHOB (11743442_s_at) / Fold change /veh RHOB (11743442_s_at) / RFU RGS16 (11720943_a_at) / Fold change /veh RGS16 (11720943_a_at) / RFU RGS16 (11720944_at) / Fold change /veh RGS16 (11720944_at) / RFU, VPS4B / Fold change vs veh, VPS4B / RFU, CREB1 / Fold change vs veh, CREB1 / RFU, DNAJC13 / Fold change vs veh, DNAJC13 / RFU, GNAQ / Fold change vs veh, GNAQ / RFU, CDK5R1 / Fold change vs veh, CDK5R1 / RFU, ZRANB3 / Fold change vs veh, ZRANB3 / RFU, CUL4A / Fold change vs veh, CUL4A / RFU, CCNY / Fold change vs veh, CCNY / RFU, UFL1 / Fold change vs veh, UFL1 / RFU, COG3 / Fold change vs veh, COG3 / RFU, DIAPH2 / Fold change vs veh, DIAPH2 / RFU, SKA2 / Fold change vs veh, SKA2 / RFU, AFF3 / Fold change vs veh, AFF3 / RFU, LMF1 / Fold change vs veh, LMF1 / RFU, IPO11 / Fold change vs veh, IPO11 / RFU, DFFB / Fold change vs veh, DFFB / RFU, FOXP1 / Fold change vs veh, FOXP1 / RFU, CARD8 / Fold change vs veh, CARD8 / RFU, STRN3 / Fold change vs veh, STRN3 / RFU, ADK / Fold change vs veh, ADK / RFU, RASSF2 / Fold change vs veh, RASSF2 / RFU, WIPF1 / Fold change vs veh, WIPF1 / RFU, LARP1B / Fold change vs veh, LARP1B / RFU, RASA1 / Fold change vs veh, RASA1 / RFU, RB1 / Fold change vs veh, RB1 / RFU, PPFIA1 / Fold change vs veh, PPFIA1 / RFU, MAT2A / Fold change vs veh, MAT2A / RFU, CCT5 / Fold change vs veh, CCT5 / RFU, WDR92 / Fold change vs veh, WDR92 / RFU, CUX1 / Fold change vs veh, CUX1 / RFU, TTC7A / Fold change vs veh, TTC7A / RFU, TMEM135 / Fold change vs veh, TMEM135 / RFU, DEPTOR / Fold change vs veh, DEPTOR / RFU, CPM / Fold change vs veh, CPM / RFU, DNAJB6 / Fold change vs veh, DNAJB6 / RFU, CACNA2D3 / Fold change vs veh, CACNA2D3 / RFU, DTX4 / Fold change vs veh, DTX4 / RFU, TFCP2 / Fold change vs veh, TFCP2 / RFU, GMCL1 /// GMCL1P1 / Fold change vs veh, GMCL1 /// GMCL1P1 / RFU, AEBP2 / Fold change vs veh, AEBP2 / RFU, SNHG1 /// SNORD22 /// SNORD25 /// SNORD26 /// SNORD27 /// SNORD28 /// SNORD29 /// SNORD31 / Fold change vs veh, SNHG1 /// SNORD22 /// SNORD25 /// SNORD26 /// SNORD27 /// SNORD28 /// SNORD29 /// SNORD31 / Fold change (Aza/veh), C12orf56 (ProbeSet 11735607_a_at) / Fold change (ACY-1035/veh), C12orf56 (ProbeSet 11735607_a_at) / Fold change (Aza/veh), FGFR1OP (ProbeSet 11751329_s_at) / Fold change (ACY-1035/veh), FGFR1OP (ProbeSet 11751329_s_at) / Fold change (Aza/veh), VPS36 (ProbeSet 11739960_a_at) / Fold change (ACY-1035/veh), VPS36 (ProbeSet 11739960_a_at) / RFU SYPL1 (11715823_x_at) / Fold change /veh SYPL1 (11715823_x_at) / RFU IGFBP7 (11715501_s_at) / Fold change /veh IGFBP7 (11715501_s_at) / RFU REEP3 (11722064_at) / Fold change /veh REEP3 (11722064_at) / RFU IGLL1 (11728026_x_at) / Fold change /veh IGLL1 (11728026_x_at): dose or concentration left out as unconfirmed
Settings: MV-4-11 cells, 48 hours

Nc1ncn([C@@H]2O[C@H](CO)[C@@H](O)[C@H]2O)c(=O)n1 [azacitidine]
RFU RASL12 (11751679_a_at): 15.38 RFU
